Experimental data from PMC12016938, “A small molecule PKCε inhibitor reduces hyperalgesia induced by paclitaxel or opioid withdrawal” (JCI Insight, 2025).
Several values for one entry are separate records, joined by “and”; a condition that tells them apart may be missing. Identical values can stand only once.

Test system: self-administration (addictive potential)
Assay: I.v. self-administration of CP612, between-session progressive ratio and demand curve
Protocol: We tested the addictive potential of CP612 by examining the extent to which rats are willing to work to obtain CP612. Rats were initially trained to self-administer either saline, morphine (500 μg/kg/i.v. infusion), or 1 of 3 different doses of CP612 (75, 150, or 300 μg/kg/i.v. infusion) for 4 days at fixed ratio 1 (FR1, where 1 nose poke delivers 1 infusion).
During the second phase, the ratio to obtain an infusion increased geometrically every other day (FR1, FR3, FR6, FR12, FR24, FR48, and FR96).
Data (number of self-infusions) were also fitted in an economic-demand curve, which provides an estimate of the motivation to obtain drugs and their addictive potential ([20]). We measured elasticity (α), which is the relative change in consumption as a function of price (i.e., ratio of nose pokes required to obtain an infusion). Behavior is considered “inelastic” when consumption is insensitive to price and “elastic” when consumption is sensitive to price. We also measured Pmax, which is the price at which intake switches from inelastic to elastic. […] (Figure 8B).
Rats not immediately anesthetized were eliminated from the study.
Following this initial acquisition phase at FR1, the ratio to obtain the drug was increased geometrically every other day: FR3 (3 nose pokes are required to obtain 1 infusion of morphine), FR6, FR12, FR24, FR48, and FR96. This allows for analysis of drug consumption as a function of “price” using demand curves for behavioral economics, which can estimate the motivation to obtain drugs and their “addictive potential” ([20]). For this, data from each rat were fitted to the equation log Q = log Q0 + k (e ^–α(Q0 ^C) – 1), where Q represents consumption (number of self-infusions), and Q0 represents the level of consumption at the lowest price. C represents price for the drug (i.e., the ratio), and k is set to a constant accounting for the estimated range of consumption in logarithmic units (k = 4 in these studies). The symbol α is the relative change in consumption across changes in price (ratio). Behavior is considered “inelastic” when consumption is insensitive to price (i.e., the curve is flat, and consumption is maintained despite increases in price), and it switches to “elastic” when consumption is sensitive to price (i.e., when the curve is steep and consumption declines with increases in price). […] We also compared groups for their average intake in the consumption-price curves by measuring α (elasticity) and Pmax.

Compound: N[C@H](CNC(=O)C1(c2ccc(Cl)cc2)CCCC1)c1ccc(C(=O)Nc2ccncc2)cc1 [CP612]
- AVG Latency (FR12) (CP612-Mid, individual rat): 0.5 and 1.1 and 1.0 and 3.5 and 4.2
- AVG Latency (FR24) (CP612-Mid, individual rat): 0.3 and 1.4 and 1.0 and 1.5
- AVG Latency (FR48) (CP612-Mid, individual rat): 0.112 and 1.3 and 0.7 and 0.539 and 2.5
- AVG Latency (FR96) (CP612-Mid, individual rat): 2.0 and 0.8 and 0.6 and 2.4
- D1 Latency (FR1) (CP612-Mid, individual rat): 3.8 and 0.15 and 0.8 and 0.215
- D1 Latency (FR3) (CP612-Mid, individual rat): 0.137 and 0.557 and 0.083 and 0.1 and 1.4
- D1 Latency (FR6) (CP612-Mid, individual rat): 0.9 and 1.2 and 1.4 and 3.2 and 4.8
- D1 Latency (FR12) (CP612-Mid, individual rat): 0.255 and 1.6 and 1.7 and 5.8
- D1 Latency (FR24) (CP612-Mid, individual rat): 0.108 and 2.3 and 0.4 and 0.282 and 2.0
- D1 Latency (FR48) (CP612-Mid, individual rat): 0.123 and 1.4 and 0.337 and 0.447 and 2.9
- D1 Latency (FR96) (CP612-Mid, individual rat): 2.4 and 0.76 and 0.8 and 2.5 and 0.4
- D2 Latency (FR1) (CP612-Mid, individual rat): 0.5 and 0.215 and 0.6 and 0.237 and 2.1
- D2 Latency (FR3) (CP612-Mid, individual rat): 1.4 and 0.375 and 2.2 and 0.065 and 0.125
- D2 Latency (FR6) (CP612-Mid, individual rat): 0.335 and 0.737 and 0.17 and 2.8 and 5.1
- D2 Latency (FR12) (CP612-Mid, individual rat): 0.7 and 0.6 and 0.4 and 5.2 and 2.6
- D2 Latency (FR24) (CP612-Mid, individual rat): 0.5 and 0.432 and 0.168 and 1.7 and 1.0
- D2 Latency (FR48) (CP612-Mid, individual rat): 0.1 and 1.2 and 1.0 and 0.632 and 2.0
- D2 Latency (FR96) (CP612-Mid, individual rat): 1.7 and 0.8 and 0.435 and 2.3
- D3 Latency (FR1) (CP612-Mid, individual rat): 0.237 and 0.127 and 0.132 and 0.128 and 0.347
- D4 Latency (FR1) (CP612-Mid, individual rat): 0.8 and 1.4 and 0.4 and 3.8
- last Latency (FR1) (CP612-Mid, individual rat): 0.158 and 0.458 and 0.11 and 0.378 and 3.0
- last-1 Latency (FR1) (CP612-Mid, individual rat): 0.8 and 1.4 and 0.4 and 3.8
- last-2 Latency (FR1) (CP612-Mid, individual rat): 0.237 and 0.127 and 0.132 and 0.128 and 0.347
- last-3 Latency (FR1) (CP612-Mid, individual rat): 0.237 and 0.215 and 0.6 and 0.128 and 0.347
- AVG Latency (FR1_D1 to D4) (CP612-Mid, individual rats): 1.8 and 5.8 and 0.9
- AVG Latency (FR1_Last 2 FR1 days) (CP612-Mid, individual rats): 0.456 and 1.8 and 0.373
- AVG Latency (FR1_Last 4 FR1 days) (CP612-Mid, individual rats): 0.455 and 2.3 and 0.265
- AVG Latency (FR3) (CP612-Mid, individual rats): 0.7 and 0.9 and 0.6
- AVG Latency (FR6) (CP612-Mid, individual rats): 1.0 and 2.4 and 0.144
- AVG Latency (FR12) (CP612-Mid, individual rats): 0.657 and 1.0 and 0.8
- AVG Latency (FR24) (CP612-Mid, individual rats): 0.8 and 0.757 and 0.6
- AVG Latency (FR48) (CP612-Mid, individual rats): 2.5 and 6.0 and 0.7
- AVG Latency (FR96) (CP612-Mid, individual rats): 1.0 and 1.3
- D1 Latency (FR1) (CP612-Mid, individual rats): 5.7 and 14.9 and 2.9
- D1 Latency (FR3) (CP612-Mid, individual rats): 1.0 and 0.8 and 0.465
- D1 Latency (FR6) (CP612-Mid, individual rats): 1.7 and 4.2 and 0.257
- D1 Latency (FR12) (CP612-Mid, individual rats): 0.9 and 1.9 and 1.1
- D1 Latency (FR24) (CP612-Mid, individual rats): 1.1 and 0.9 and 0.442
- D1 Latency (FR48) (CP612-Mid, individual rats): 1.5 and 0.8 and 1.2
- D1 Latency (FR96) (CP612-Mid, individual rats): 1.1 and 0.335 and 0.8
- D2 Latency (FR1) (CP612-Mid, individual rats): 0.7 and 3.0 and 0.022
- D2 Latency (FR3) (CP612-Mid, individual rats): 0.4 and 1.0 and 0.738
- D2 Latency (FR6) (CP612-Mid, individual rats): 0.427 and 0.638 and 0.03
- D2 Latency (FR12) (CP612-Mid, individual rats): 0.377 and 0.168 and 0.5
- D2 Latency (FR24) (CP612-Mid, individual rats): 0.5 and 0.6 and 0.753
- D2 Latency (FR48) (CP612-Mid, individual rats): 3.5 and 11.3 and 0.2
- D2 Latency (FR96) (CP612-Mid, individual rats): 0.8 and 2.3 and 1.1
- D3 Latency (FR1) (CP612-Mid, individual rats): 0.6 and 4.4 and 0.157
- D4 Latency (FR1) (CP612-Mid, individual rats): 0.3 and 1.0 and 0.57
- last Latency (FR1) (CP612-Mid, individual rats): 0.2 and 0.6 and 0.177
- last-1 Latency (FR1) (CP612-Mid, individual rats): 0.7 and 3.1 and 0.57
- last-2 Latency (FR1) (CP612-Mid, individual rats): 0.3 and 1.0 and 0.157
- last-3 Latency (FR1) (CP612-Mid, individual rats): 0.6 and 4.4 and 0.157
- AVG Inf (FR96) (rat, in vivo): 0.0
- Addictive potential (rat, in vivo): highly unlikely to be addictive
- D1 Inf (FR96) (rat, in vivo): 0
- D2 Inf (FR96) (rat, in vivo): 0
- AVG Inf (FR96) (rat, in vivo, 2 h): 0.0
- D1 Inf (FR96) (rat, in vivo, 2 h): 0
- D2 Inf (FR96) (rat, in vivo, 2 h): 0
- D1 Inf (FR48) (rat, in vivo, 1 day at FR48): 0
- D1 Inf (FR96) (rat, in vivo, 1 day at FR96): 0
- D2 Inf (FR48) (rat, in vivo, 2 day at FR48): 0
- D2 Inf (FR96) (rat, in vivo, 2 day at FR96): 0
